Data reported in US20080200479A1, “Ocaperidone Salts and Pharmaceutical Compositions Containing the Same” (priority 2005, published 2008).
Values after ≈ are worked out from the molar mass of the structure shown. Structures can show the parent of a compound that is named as a salt.

Legend:
[1] = Solubility of ocaperidone salts and free base in water; conditions: for solubility in water (in words): crystalline salt, HPLC grade water pH=6, 25° C., 1 h and 24 h, compared with salts of examples 1, 3-10 and free base
Method: In particular, the solubilities of ocaperidone salts were measured as follows:
UV/visible spectrophotometer: Agilent 8453E
Volumetric flask (5 ml, 10 ml, 20 ml, 100 ml) Mechanical pipettes: Biohit (m1000, m200)
Magnetic stirrer: Heidolph MR3001K
A suspension of 100 mg of crystalline ocaperidone salt or ocaperidone free base in 1 ml HPLC grade pure water (pH=6) was prepared. The suspension was kept at fixed and controlled temperature (ex: 25° C.) under magnetic stirring for 24 hours. A sample was taken, filtered and the solubility of the ocaperidone salts or ocaperidone free base was measured after 1 h and 24 h. Results are given in g/100 ml.

[2] = Solubility of ocaperidone free base in acid solution; assay type: physicochemical; conditions: acid solution at pH=1.3

Row | SMILES | solubility in water (in words) [1] | solubility in water (in words) ([1]; listed as ocaperidone pyroglutamic salt) | times more soluble than the succinic acid addition salt ([1]; ocaperidone salt solubility study in water, ratio to succinic acid addition salt) [times] | solubility thermodynamic ([1]; 25 °C, pH 6, water, thermodynamic from solid) [µg/mL] | solubility in acid solution [2] [g/100 ml]
1 | Cc1nc2c(C)cccn2c(=O)c1CCN1CCC(c2noc3cc(F)ccc23)CC1 [Example 2, Ocaperidone Pyroglutamic Acid Salt] | higher solubility in water than the other salts | unexpectedly high solubility | 31.2 |  | 
2 | Cc1nc2c(C)cccn2c(=O)c1CCN1CCC(c2noc3cc(F)ccc23)CC1 [ocaperidone, 3-[2-[4-(6-fluoro-1,2-benzisoxazol-3-yl)-1-piperidinyl]ethyl]-2,9-dimethyl-pyrido-[1,2-a]pyrimidin-4-one] |  |  |  | 7 (≈ 16.6 µM) | 0.25
